From BindingDB's records for doi:10.7270/Q2765CSM (Burnham Center For Chemical Genomics, 2011) come the findings set out here.

The EC50 is the concentration at which the effect is half-maximal.

The target of this assay is T1, Hexokinase-1 (Homo sapiens, UniProt P19367).
T1 sequence (P19367 whole entry): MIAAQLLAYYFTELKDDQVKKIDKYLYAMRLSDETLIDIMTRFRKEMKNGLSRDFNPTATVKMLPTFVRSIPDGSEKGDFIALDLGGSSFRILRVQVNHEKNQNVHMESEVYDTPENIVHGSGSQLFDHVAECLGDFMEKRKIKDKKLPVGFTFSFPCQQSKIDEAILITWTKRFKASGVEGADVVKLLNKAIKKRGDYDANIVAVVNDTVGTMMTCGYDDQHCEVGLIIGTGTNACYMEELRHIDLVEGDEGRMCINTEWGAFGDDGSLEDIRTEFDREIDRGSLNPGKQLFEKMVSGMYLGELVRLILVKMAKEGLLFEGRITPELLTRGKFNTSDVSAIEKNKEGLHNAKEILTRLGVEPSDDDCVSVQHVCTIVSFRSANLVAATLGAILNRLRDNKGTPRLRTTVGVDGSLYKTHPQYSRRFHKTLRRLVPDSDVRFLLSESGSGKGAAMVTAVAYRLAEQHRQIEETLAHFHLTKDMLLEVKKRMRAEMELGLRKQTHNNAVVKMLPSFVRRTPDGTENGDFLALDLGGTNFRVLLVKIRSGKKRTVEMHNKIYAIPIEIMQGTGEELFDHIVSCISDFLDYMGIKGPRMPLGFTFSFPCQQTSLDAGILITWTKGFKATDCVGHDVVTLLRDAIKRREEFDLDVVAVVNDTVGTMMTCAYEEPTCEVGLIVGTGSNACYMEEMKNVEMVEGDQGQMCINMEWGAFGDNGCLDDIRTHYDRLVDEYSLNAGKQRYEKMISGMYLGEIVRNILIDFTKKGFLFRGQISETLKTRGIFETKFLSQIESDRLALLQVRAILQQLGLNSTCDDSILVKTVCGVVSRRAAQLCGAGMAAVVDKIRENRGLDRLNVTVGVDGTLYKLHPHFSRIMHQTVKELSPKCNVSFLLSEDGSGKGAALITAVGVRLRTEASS
The assay is described as follows: hexokinase 1 activators, dose response, selectivity assay for HKDC1 activator project, biochemical (AID 504762).
For the compound `Nn1cnnc1N=NCc1cc(Br)cc(Br)c1O`, the EC50 worked out at 42.3 µM.
To `CC(N=Nc1nc2ccccc2o1)c1cc2ccccc2cn1` (centres undefined) belongs greater than 80 µM.
To `CCCOC1=CC(=O)C(C=NNC(=S)Nc2ccccc2[N+](=O)[O-])C=C1` (centres undefined) [1-(2-nitrophenyl)-3-[[(E)-(6-oxo-4-propoxy-1-cyclohexa-2,4-dienylidene)methyl]amino]thiourea] belongs greater than 80 µM; to `CC(C)(C)c1nnc(N=NCc2cc(Br)ccc2O)n(N)c1=O` [4-azanyl-3-[2-[(E)-(3-bromanyl-6-oxidanylidene-cyclohexa-2,4-dien-1-ylidene)methyl]hydrazinyl]-6-tert-butyl-1,2,4-triazin-5-one], greater than 80 µM.
To `Cc1[nH]n(-c2ccccc2)c(=O)c1CN=Nc1nncc(-c2ccccc2)n1` [(4E)-5-methyl-2-phenyl-4-[[(5-phenyl-1,2,4-triazin-3-yl)hydrazo]methylidene]-3-pyrazolone] belongs greater than 80 µM; to `O=C1C(=C2C(=O)c3ccccc3C2=O)Nc2ccccc21` [MLS000071738], 37.1 µM; to `Oc1c(Cl)c(N=Cc2cccnc2)c(O)c2ccccc12` [MLS001195521], 30.8 µM.
Consider `Cc1ccc2c(C)c3ccc4ccccc4c3c[n+]2c1` [MLS002701915], for which it took 5.2 µM to reach a half-maximal effect (EC50).
To `CC(=O)Oc1cccc2c(O)c3c(c(O)c12)CC=CC3OC(C)=O` (centres undefined) [SMR001574207] belongs 34.1 µM.
